Measured values: patent US20190270796A1, “THERAPEUTIC AGENT FOR PERIODONTITIS AND COMPOSTION FOR TREATING PERIODONTITIS” (NIHON UNIVERSITY, priority 2016, published 2019)

Tests used:
[1] = test system: gingival fibroblasts extremely decomposing collagen gel (PAF1, PAF2); assay: weight of collagen gel after three-dimensional culture (Experimental Example 3); format: cell-based, human; details: HGF 50 ng/mL, HGF-neutralizing antibody 20 μg/mL; for weight of collagen gel: day 5 of suspension culture
Protocol: Cell matrix type I-A (Nitta Gelatin Inc.), 5×DMEM, a buffer solution for reconstitution (Nitta gelatin) were mixed with each other to prepare a collagen mixed solution. An HGF-neutralizing antibody (model “AB-294-NA”, R&D) was added to this collagen mixed solution so that the final concentration became 20 μg/mL. In addition, a sample containing no test substance (control) and a sample to which HGF (model “100-39”, PeproTech, Inc.) was added so that the final concentrations became 50 ng/mL were prepared for comparison.
Subsequently, the same gingival fibroblasts, which extremely decompose collagen gel, as in Experimental Example 1 were mixed with these collagen mixed solutions and seeded in a 6-well plate so that the cell density became 2.5×10^5 cells/well. Subsequently, the mixture was incubated at 37° C. for 30 minutes and the collagen gel was hardened. Two kinds of cells (hereinafter, referred to as “PAF1” and “PAF2”) were used as gingival fibroblasts extremely decomposing collagen gel.
Subsequently, the same gingival epithelial cells as in Experimental Example 1 were dispersed by trypsin treatment, and were then seeded on the above-described collagen gel at 2×10^5 cells/well to form a single layer of the epithelial cells.
Subsequently, each prepared collagen gel was incubated at 37° C. After 24 hours, each collagen gel piece was peeled off from a plate and was suspended (on day 1 of culture). HGF-neutralizing antibodies having the same concentration as that described above were added to a medium of a test group. Subsequently, suspension culture of collagen gel was continued at 37° C.
Collagen gel was collected on day 5 after the start of the suspension culture, and the weight thereof was measured. FIGS. 5(a) and 5(b) are photographs of collected collagen gel. […] In FIGS. 5(a) and 5(b), the “control” indicates control collagen gel, “HGF” indicates collagen gel to which HGF is added, and the “HGF-neutralizing antibody” indicates collagen gel to which an HGF-neutralizing antibody is added.

[2] = test system: normal gingival fibroblasts; assay: three-dimensional collagen gel culture system with normal gingival fibroblasts (Experimental Example 1); format: cell-based, human; details: day 5 of suspension culture, HGF 25 and 50 ng/mL, HGF-neutralizing antibody 20 μg/mL
From the text: In addition, gingival fibroblasts with a low resolution of collagen gel (hereinafter, sometimes referred to as “normal gingival fibroblasts”) were used as controls. Gingival fibroblasts with which the contraction of collagen gel having a diameter of 35 mm remained to a diameter of about 10 mm were used as normal gingival fibroblasts.
In addition, the same collagen gel as the above-described collagen gel was produced for comparison except that the above-described normal gingival fibroblasts were used instead of the gingival fibroblasts which extremely decompose collagen gel.
Subsequently, each prepared collagen gel piece was incubated at 37° C. After 24 hours, each collagen gel piece was peeled off from a plate and was suspended (on day 1 of culture). Each test substance (HGF-neutralizing antibody and HGF) having the same concentration as that described above was added to a medium. Subsequently, suspension culture of collagen gel was continued at 37° C., and collagen gel was observed on day 5 after the start of the suspension culture.
FIGS. 2(a) to 2(h) are photographs of each collagen gel piece on day 5 after the start of the suspension culture. Each mass floating in each well in FIGS. 2(a) to 2(h) is collagen gel. FIGS. 2(a) to 2(d) show results of collagen gel containing gingival fibroblasts which extremely decompose collagen gel. […]

[3] = test system: gingival fibroblasts which extremely decompose collagen gel, derived from a patient with periodontitis; assay: three-dimensional collagen gel culture system, collagen degradation (Experimental Example 1); format: cell-based, human; details: day 5 of suspension culture; compared to control; HGF 50 ng/mL; HGF-neutralizing antibody 20 μg/mL
Protocol: First, a three-dimensional collagen gel culture system of gingival fibroblasts previously developed by the present inventors will be described with reference to FIGS. 1(a) to 1(d). In this culture system, it is possible to evaluate the influence of a test substance on degradation of collagen in periodontal tissues in vitro and to obtain results close to in vivo.
First, as shown in FIG. 1(a), gingival fibroblasts derived from a patient with periodontitis and a test substance are added into collagen gel, and the mixture is poured into a petri dish. Subsequently, the mixture is incubated at 37° C. for 30 minutes and the collagen gel is hardened. Subsequently, gingival epithelial cells derived from the patient with periodontitis are seeded on the hardened collagen gel and incubated overnight.
Subsequently, as shown in FIG. 1(b), the collagen gel is peeled off from the petri dish to make the collagen gel float. At this time, the test substance is also added into a medium in which the collagen gel floats. Subsequently, the suspension culture is continued for 5 days. Meanwhile, the collagen gel is degraded and contracts due to various factors produced by an interaction between the gingival fibroblasts and the gingival epithelial cells. […]
Subsequently, as shown in FIG. 1(c), the amount of residual collagen is quantitatively determined on day 5 of suspension culture. […]

[4] = test system: monkey gingival fibroblasts which extremely decompose collagen gel; assay: three-dimensional collagen gel culture system with monkey gingival fibroblasts (Experimental Example 4); format: cell-based, Macaca fascicularis; details: HGF 50 ng/mL, HGF-neutralizing antibody 20 μg/mL
From the text: Before clinical application of the therapeutic agent for periodontitis of the present invention to humans, it is necessary to conduct experiments using monkeys. An effect of an HGF-neutralizing antibody on degradation of collagen using gingival fibroblasts derived from a monkey naturally occurred periodontitis was examined using the same three-dimensional collagen gel culture system as in Experimental Example 1. Since it is difficult to culture gingival epithelial cells of monkeys, human gingival epithelial cells were used as gingival epithelial cells. Tissue of a gingiva piece derived from an euthanasia individual of a monkey (Macaca fascicularis, raised in Tsukuba Primate Research Center) naturally occurred periodontitis was cut, and then, the tissue pieces were allowed to stand on the bottom of a cell culture plate. Subsequently, outgrown cells from the tissue pieces were subcultured as a first generation to obtain monkey gingival fibroblasts. The obtained gingival fibroblasts were once cultured in the above-described three-dimensional collagen gel culture system to observe collagen resolution, and gingival fibroblasts which extremely decompose collagen gel (that is, with which collagen gel were degraded and contracted). […]

In the case of “HGF: HGF (model “100-39”, PeproTech, Inc.), hepatocyte growth factor added for comparison”, the “weight of collagen gel” value ([1]; PAF1, control 0.013 g) is reported as 0.011 g, the “degradation of collagen gel” value ([1]; PAF1 and PAF2, compared to control collagen gel) is reported as “remarkably accelerated” and the “weight of collagen gel” value ([1]; PAF2, control 0.034 g) is reported as 0.028 g. The “difference in decomposition of collagen” value [2] was “no difference”, the “degradation of collagen (observation of collagen gel)” value [3] was “clearly accelerated” and the “degradation of collagen (observation of collagen gel)” value ([4]; monkey gingival fibroblasts with human gingival epithelial cells (SAF1, SAF2), day 5 of suspension culture, compared to controls) was “promoted”. For the same substance, the “vacuoles around cells (hematoxylin-eosin staining of thin section of collagen gel)” value ([4]; monkey gingival fibroblasts, SAF1) was “a vacuole is formed around the cell”.
